# Target: human GPR40 protein (Homo sapiens, UniProt O14842)
# Assay: GPR40 agonist binding inhibition (displacement of 3H-labeled propanoic acid radioligand)
# Conditions: membrane protein including human GPR40, 3H-labeled propanoic acid radioligand, 25° C., 2 hours; read-out: Half maximal inhibitory concentration
# Method: Measurement of 50% Inhibitory Concentration (ID50) for GPR40 Agonist Binding
# To examine the efficacy of the compounds according to one exemplary embodiment of the present invention in modulating GPR40, the half maximal inhibitory concentrations (IC50) of the compounds according to one exemplary embodiment of the present invention were measured by Microbeta2™ (PerkinElmer Inc.) using a change in radiation dose emitted from ^3H-labeled propanoic acid (i.e., 3-(4-((2,6′-dimethyl-6-((4-(^3H))-phenylmethoxy)biphenyl-3-yl)methoxy)phenyl)propanoic acid), which is a radioactive isotope which binds to a human GPR40 protein, as an indicator.
# Specifically, a test compound was prepared by serial dilution with DMSO, and 100 μL of a binding buffer (including 25 mM HEPES (pH 7.5), 5 mM MgCl2, 100 mM NaCl, and 0.1% free fatty acid BSA; Sigma-Aldrich Corp.) was put into each well of a 96-well transparent plate. Thereafter, each of the diluted compound, propanoic acid which was prepared by dissolving propanoic acid in DMSO to a concentration of 500 mM and not labeled with a radioactive isotope, and DMSO was dispensed at 5 μL per well. ^3H-labeled propanoic acid was dissolved in a binding buffer at a concentration of 1 nM and dispensed at 50 μL into the corresponding wells, and a membrane protein including a human GPR40 protein was dissolved in a binding buffer at a concentration of 20 μg/well and dispensed at 100 μL, into the corresponding wells.
# After the dispensation was completed, the plate was incubated at a temperature of 25° C. and a rotary speed of 230 rpm for 2 hours while shaking. A human GPR40 complex was transferred to Filtermat A (PerkinElmer Inc.) using a cell harvester (PerkinElmer Inc.), washed 10 times with 50 mM tris-HCl, dried, and then scintillated using Meltilex (PerkinElmer Inc.). Thereafter, an emitted radiation dose was measured using Microbeta2™. The radiation doses emitted from the complex in the well containing 10 mM unlabeled propanoic acid and the complex in the well containing DMSO alone were set as 0% and 100%, respectively. Thus, a change curve for each of the radiation doses was plotted to calculate the half maximal inhibitory concentration of the test compound.
# Sequence of human GPR40 protein (O14842 whole entry): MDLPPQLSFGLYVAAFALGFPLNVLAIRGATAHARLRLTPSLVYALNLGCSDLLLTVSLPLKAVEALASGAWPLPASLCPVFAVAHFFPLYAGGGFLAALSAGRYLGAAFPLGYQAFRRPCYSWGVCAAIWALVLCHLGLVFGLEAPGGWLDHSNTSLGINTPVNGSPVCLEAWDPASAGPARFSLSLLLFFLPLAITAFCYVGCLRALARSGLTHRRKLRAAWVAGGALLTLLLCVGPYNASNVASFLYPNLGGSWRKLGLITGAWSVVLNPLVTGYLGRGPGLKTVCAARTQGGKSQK
row,SMILES,IC50 [nM]
1,"CS(=O)(=O)CCCOc1ccc2c(c1)CCCc1ccc(CNc3ccc([C@H]4C[C@@H]4C(=O)O)cc3)cc1-2 [Example 6, (1S,2S)-2-(4-(((9-(3-(methylsulfonyl)propoxy)-6,7-dihydro-5H-dibenzo[a,c][7]annulen-2-yl)methyl)amino)phenyl)cyclopropanecarboxylic acid]",116
2,"O=C(O)C[C@@H]1COc2cc(OCc3ccc4c(c3)-c3ccc(OCC5(O)CCS(=O)(=O)CC5)cc3CCC4)ccc21 [Example 65, (S)-2-(6-((9-((4-hydroxy-1,1-dioxidotetrahydro-2H-thiopyran-4-yl)methoxy)-6,7-dihydro-5H-dibenzo[a,c][7]annulen-2-yl)methoxy)-2,3-dihydrobenzofuran-3-yl)acetic acid]",160
3,"Cc1cc(OC2CCS(=O)(=O)CC2)cc2c1-c1cc(CNc3ccc([C@H]4C[C@@H]4C(=O)O)cc3)ccc1CCC2 [Example 76, (1S,2S)-2-(4-(((9-((1,1-dioxidotetrahydro-2H-thiopyran-4-yl)oxy)-11-methyl-6,7-dihydro-5H-dibenzo[a,c][7]annulen-2-yl)methyl)amino)phenyl)cyclopropanecarboxylic acid]",14.7
4,"C[C@@H]1Cc2cc(OCCCS(C)(=O)=O)ccc2-c2cc(COc3ccc4c(c3)OC[C@H]4CC(=O)O)ccc2O1 [Example 79, 2-((S)-6-(((R)-6-methyl-9-(3-(methylsulfonyl)propoxy)-6,7-dihydrodibenzo[b,d]oxepin-2-yl)methoxy)-2,3-dihydrobenzofuran-3-yl)acetic acid]",84.4
5,"Cc1nc(N2CCOCC2)nc2c1-c1cc(COc3ccc4c(c3)OC[C@H]4CC(=O)O)ccc1CCC2 [Example 81, 2-((3S)-6-((1-methyl-3-morpholino-6,7-dihydro-5H-benzo[3,4]cyclohepta[1,2-d]pyrimidin-10-yl)methoxy)-2,3-dihydrobenzofuran-3-yl)acetic acid]",181
6,"CC1(COc2ccc3c(c2)CCCc2ccc(COc4ccc5c(c4)OC[C@H]5CC(=O)O)cc2-3)CCS(=O)(=O)CC1 [Example 93, (S)-2-(6-((9-((4-methyl-1,1-dioxidotetrahydro-2H-thiopyran-4-yl)methoxy)-6,7-dihydro-5H-dibenzo[a,c][7]annulen-2-yl)methoxy)-2,3-dihydrobenzofuran-3-yl)acetic acid]",50.5
7,"CCS(=O)(=O)CCCOc1ccc2c(c1)CCCc1cc(F)c(CNc3ccc([C@H]4C[C@@H]4C(=O)O)cc3)cc1-2 [Example 105, (1S,2S)-2-(4-(((9-(3-(ethylsulfonyl)propoxy)-3-fluoro-6,7-dihydro-5H-dibenzo[a,c][7]annulen-2-yl)methyl)amino)phenyl)cyclopropanecarboxylic acid]",16.2
8,"CC#C[C@@H](CC(=O)O)c1ccc(OCc2ccc3c(c2)-c2ccc(OCC4CCS(=O)(=O)CC4)cc2CCC3)cc1 [Example 109, (S)-3-(4-((9-((1,1-dioxidotetrahydro-2H-thiopyran-4-yl)methoxy)-6,7-dihydro-5H-dibenzo[a,c][7]annulen-2-yl)methoxy)phenyl)hex-4-ynoic acid]",5.6

# Tested on: male ZFDM rats
# Assay: Hypoglycemic rate after oral glucose loading in rats
# Format: in vivo, rat
# Conditions: oral 0.1 to 30 mg/kg one hour before glucose loading (1.5 g/kg), blood glucose AUC 0 to 120 minutes versus control
# Method: Measurement of Hypoglycemic Rate in Rats
# An effect of the compound according to one exemplary embodiment of the present invention on blood glucose inhibition after glucose loading was examined in male ZFDM rats (Japan SLC, Inc.).
# Specifically, male ZFDM rats (7 week-old) pre-fed for a week were fasted overnight, and used as an animal to be tested. A test compound was prepared into a 0.5% methylcellulose suspension, which was orally administered to rats at a dose of 0.1 to 30 mg/kg before an hour of glucose loading (1.5 g/kg). As the control, 0.5% methylcellulose was administered. After the glucose administration, blood was drawn from the rats' tails after 0, 15, 30, 60 and 120 minutes to measure a blood glucose level. The area under the curve (AUC) for compound treatment was calculated using a blood glucose change profile from t=0 to 120 minutes, and a hypoglycemic rate (%) for the control was calculated.
row,SMILES,Hypoglycemic rate [%]
1,"CS(=O)(=O)CCCOc1ccc2c(c1)CCCc1ccc(CNc3ccc([C@H]4C[C@@H]4C(=O)O)cc3)cc1-2 [Example 6, (1S,2S)-2-(4-(((9-(3-(methylsulfonyl)propoxy)-6,7-dihydro-5H-dibenzo[a,c][7]annulen-2-yl)methyl)amino)phenyl)cyclopropanecarboxylic acid]",18.0
2,"Cc1cc(OCCCS(C)(=O)=O)cc2c1-c1cc(COc3ccc4c(c3)OC[C@H]4CC(=O)O)ccc1OC2 [Example 26, (S)-2-(6-((10-methyl-8-(3-(methylsulfonyl)propoxy)-6H-benzo[c]chromen-2-yl)methoxy)-2,3-dihydrobenzofuran-3-yl)acetic acid]",31.0
3,"CCS(=O)(=O)CCCOc1cc(C)c2c(c1)CCCc1ccc(COc3ccc4c(c3)OC[C@H]4CC(=O)O)cc1-2 [Example 57, 2-((3S)-6-((9-(3-(ethylsulfonyl)propoxy)-11-methyl-6,7-dihydro-5H-dibenzo[a,c][7]annulen-2-yl)methoxy)-2,3-dihydrobenzofuran-3-yl)acetic acid]",21.7
4,"O=C(O)[C@H]1C[C@@H]1c1ccc(NCc2ccc3c(c2)-c2ccc(OCC4CCS(=O)(=O)CC4)cc2CCC3)cc1 [Example 78, (1S,2S)-2-(4-(((9-((1,1-dioxidotetrahydro-2H-thiopyran-4-yl)methoxy)-6,7-dihydro-5H-dibenzo[a,c][7]annulen-2-yl)methyl)amino)phenyl)cyclopropanecarboxylic acid]",27.4
5,"CC#C[C@@H](CC(=O)O)c1ccc(OCc2ccc3c(c2)-c2ccc(OCCCS(C)(=O)=O)cc2CCC3)cc1 [Example 108, (S)-3-(4-((9-(3-(methylsulfonyl)propoxy)-6,7-dihydro-5H-dibenzo[a,c][7]annulen-2-yl)methoxy)phenyl)hex-4-ynoic acid]",37.5

# Source: patent US9643946B2, “Tricyclic compound and use thereof” (SK CHEMICALS CO., LTD., priority 2013, dated 2017)
